Assay [1] concerns acute myelocytic leukemia (AML) cell line MV4-11. Briefly: Oncology cell growth assay (3-day proliferation, CellTiter-Glo). The note with it: Homo sapiens, MV4-11, 72 h, MV4-11 cells, 3000 cells/well, compounds listed under IC50 range headings, read-out: MV411 IC50 (gIC50, inhibition of proliferation). The assay is classed as cell-based. The procedure:
The impact of Example compounds on cancer cell proliferation was determined using the acute myelocytic leukemia (AML) cell line MV4-11 (ATCC) in a 3-day proliferation assay. MV4-11 cells were maintained in RPMI 1640 media supplemented with 10% FBS at 37° C. and an atmosphere of 5% CO2. For compound testing, compound dilutions series were prepared in DMSO via a 3-fold serial dilution from 2 mM to 0.001 mM in 384-well white flat bottom plates. The final compound concentrations in the wells were 10, 3.3, 1.1, 0.37, 0.12, 0.041, 0.013 and 0.0045 μM. MV4-11 cells were plated at a density of 3000 cells/well in final volume of 50 μl culture media and incubated for 72 hours. […] Luminescent signal from the CellTiter-Glo assay was read on an EnVision multilabel plate reader (PerkinElmer). Values for the concentration that inhibited cell growth by 50% (gIC50) between the DMSO control and background control (no cells) were determined using IDBS Activity Base software with a four parameter logistic curve fit by the equation y=A+((B−A)/(1+((C/x)^D))), wherein A denotes the bottom plateau of the curve, B denotes the top plateau of the curve, C denotes the x value at the middle of the curve, D denotes the slope factor, x denotes the original known x values, and y denotes the original known y values. Data was fitted using the Levenburg Marquardt algorithm.

Assay [2] addresses T1, BRD4 Bromodomain 1 (BRD4 BD1) (Homo sapiens, UniProt O60885).
T1 construct: 44-168 and BRD4 BD2
Briefly: AlphaScreen binding assay, BRD4 BD1. Particulars: His-tagged BRD4 BD1 50 nM, biotinylated H4 (1-21) K5/8/12/16 tetra-acetylated peptide 50 nM, compounds listed under IC50 range headings. The procedure: The binding of Example compounds to BRD4 Bromodomain 1 and BRD4 Bromodomain 2 was assessed using 384-well AlphaScreen assay technology. His-epitope tagged BRD4 BD144-168 and BRD4 BD2333-460 were cloned, expressed, and purified to homogeneity. BRD4 BD1 and BRD4 BD2 binding and inhibition was assessed by monitoring the engagement of biotinylated Histone H4 (1-21) K5/8/12/16 tetra-acetylated peptide with the targets using the AlphaScreen technology (PerkinElmer). Specifically, in a 384-well black or white flat bottom plate, BRD4 BD1 (50 nM final) or BRD4 BD2 (100 nM final) was combined with peptide (50 nM final for BD1 or 100 nM final for BD2) in 50 mM HEPES (pH 7.3), 100 mM NaCl, 0.1% (w/v) BSA, and 0.01% (w/v) Triton X-100 either in the presence of DMSO (final 1.25% DMSO) or compound dilution series in DMSO. Alpha streptavidin donor beads and Nickel-chelate acceptor beads were added to a final concentration of 10 μg/ml each. After a minimum of 1 hour equilibration, plates were read on a BMG PHERAstar FS multi-label reader (BMG LabTech). The half maximal inhibitory concentration (IC50) values were calculated using IDBS Activity Base software with a four parameter logistic curve fit by the equation y=A+((B−A)/(1+((C/x)^D))), wherein A denotes the bottom plateau of the curve, B denotes the top plateau of the curve, C denotes the x value at the middle of the curve, D denotes the slope factor, x denotes the original known x values, and y denotes the original known y values. Data was fitted using the Levenburg Marquardt algorithm.

Consider `C[C@H]1CCc2c(OC3CCC3)c(-c3cn(C)nn3)cc(F)c2N1C(=O)C1CC1` [I-124, (S)-(5-cyclobutoxy-8-fluoro-2-methyl-6-(1-methyl-1H-1,2,3-triazol-4-yl)-3,4-dihydroquinolin-1 (2H)-yl)(cyclopropyl)methanone], for which the results for the IC50 in assay [1] and in assay [2] were 0.5 to 1 µM and 0.1 to 1 µM, respectively.
The matching figures for `COC(=O)N1c2c(F)cc(-c3cn(C)nn3)c(OC3CCC3)c2CC[C@@H]1C` [I-125, (S)-methyl 5-cyclobutoxy-8-fluoro-2-methyl-6-(1-methyl-1H-1,2,3-triazol-4-yl)-3,4-dihydroquinoline-1(2H)-carboxylate]: greater than 1 µM and 1 to 10 µM.
For `CC(=O)N1c2c(F)cc(-c3cn(C)nn3)c(OC3CCC3)c2CC[C@@H]1C` [I-126, (S)-1-(5-cyclobutoxy-8-fluoro-2-methyl-6-(1-methyl-1H-1,2,3-triazol-4-yl)-3,4-dihydroquinolin-1(2H)-yl)ethanone] the same measures were greater than 1 µM and 1 to 10 µM.
Consider `C[C@H]1CCc2c(ccc(-c3nnc(N)s3)c2OC2CCC2)N1C(=O)C1CC1` [I-127, (S)-(6-(5-amino-1,3,4-thiadiazol-2-yl)-5-cyclobutoxy-2-methyl-3,4-dihydroquinolin-1(2H)-yl)(cyclopropyl)methanone], for which the values for the IC50 in assay [1] and in assay [2] were less than 0.5 µM and 0.1 to 1 µM, respectively.
For `C[C@H]1CCc2c(ccc(-c3c[nH]nn3)c2OC2CCC2)N1C(=O)C1CC1` [I-128, (S)-(5-cyclobutoxy-2-methyl-6-(1H-1,2,3-triazol-4-yl)-3,4-dihydroquinolin-1(2H)-yl)(cyclopropyl)methanone] the same measures were 0.5 to 1 µM and 0.1 to 1 µM.
For `COC(=O)N1c2ccc(-c3csc(C(N)=O)n3)c(OC3CCC3)c2CC[C@@H]1C` [I-129, (S)-methyl-6-(2-carbamoylthiazol-4-yl)-5-cyclobutoxy-2-methyl-3,4-dihydroquinoline-1(2H)-carboxylate] the same measures were less than 0.5 µM and 0.1 to 1 µM.
With `CNC(=O)c1nc(-c2ccc3c(c2OC2CCC2)CC[C@H](C)N3C(=O)OC)cs1` [I-130, (S)-methyl 5-cyclobutoxy-2-methyl-6-(2-(methylcarbamoyl)thiazol-4-yl)-3,4-dihydroquinoline-1(2H)-carboxylate], the IC50 was less than 0.5 µM in assay [1] and 0.1 to 1 µM in assay [2].
`COC(=O)N1c2ccc(-c3csc(NC(C)=O)n3)c(OC3CCC3)c2CC[C@@H]1C` [I-131, (S)-methyl 6-(2-acetamidothiazol-4-yl)-5-cyclobutoxy-2-methyl-3,4-dihydroquinoline-1(2H)-carboxylate]: the IC50 in assay [1] lay in the range of 0.5 to 1 µM; in assay [2], 1 to 10 µM.
Turning to `C[C@H]1CCc2c(ccc(-c3cn(C)nn3)c2Oc2ccccc2C#N)N1C(=O)C1CC1` [I-154, (S)-2-(1-(cyclopropanecarbonyl)-2-methyl-6-(1-methyl-1H-1,2,3-triazol-4-yl)-1,2,3,4-tetrahydroquinolin-5-yloxy)benzonitrile], the IC50 in assay [1] is less than 0.5 µM; in assay [2], 1 to 10 µM.
For `COc1cccc(Oc2c(-c3cnn(C4CCNCC4)c3)ccc3c2CC[C@H](C)N3C(C)=O)c1` [I-156, (S)-1-(5-(3-methoxyphenoxy)-2-methyl-6-(1-(piperidin-4-yl)-1H-pyrazol-4-yl)-3,4-dihydroquinolin-1(2H)-yl)ethanone] the same measures were less than 0.5 µM and 0.1 to 1 µM.
For `C[C@H]1CCc2c(ccc(-c3cnn(C4CCNCC4)c3)c2Oc2ccccc2Cl)N1C(=O)C1CC1` [I-165, (S)-(5-(2-chlorophenoxy)-2-methyl-6-(1-(piperidin-4-yl)-1H-pyrazol-4-yl)-3,4-dihydroquinolin-1(2H)-yl)(cyclopropyl)methanone] the same measures were less than 0.5 µM and 0.1 to 1 µM.
The matching figures for `C[C@H]1CCc2c(ccc(-c3cnn(C4CCNCC4)c3)c2Oc2cccc(F)c2)N1C(=O)C1CC1` [I-171, (S)-cyclopropyl(5-(3-fluorophenoxy)-2-methyl-6-(1-(piperidin-4-yl)-1H-pyrazol-4-yl)-3,4-dihydroquinolin-1(2H)-yl)methanone]: less than 0.5 µM and 0.1 to 1 µM.

The values above are taken from US10611750B2, “Tetrahydroquinoline compositions as bet bromodomain inhibitors” (FORMA Therapeutics, Inc., priority 2013, dated 2020).
